Measurements reported in PMC11200976, “Pitavastatin Calcium Confers Fungicidal Properties to Fluconazole by Inhibiting Ubiquinone Biosynthesis and Generating Reactive Oxygen Species” (Antioxidants, 2024).
Structures can show the parent of a compound that is named as a salt. Where two headings read alike, the source gives them in different places.

Tests used:
[1] = Acute toxicity, Up-and-Down procedure (OECD 425), intraperitoneal; format: in vivo; conditions: C57BL/6, mouse, in vivo, ip, mice
Experimental: (§1) Following a previously described methodology, the intraperitoneal route was employed in adult mice. In brief, the primary test involved a sequential administration of doses at intervals of at least 48 h, with one mouse being dosed at a time. Initially, a dose below LD50 was administered intraperitoneally to a mouse. If the mouse survived, the subsequent mouse would receive 1.3 times the initial dose. Conversely, if the mouse died, the subsequent mouse would receive a dose decreased by 1.3 times the initial dose. Each mouse was monitored for 48 h before determining the subsequent mouse’s dosage and administration. The experiment was terminated upon five “survive or die” reversals within a consecutive set of six animals tested. Subsequently, the LD50 and its corresponding confidence interval were computed based on the conditions observed in all mice after the experiment.

[2] = test system: C. albicans SC5314, SN152, cmp1-aid∆/cmp1-aid∆, and PADH1-UPC2 strains; test: FLC disk diffusion assays (25 μg FLC disk, 5 μM adjuvant); format: cell-based, Candida albicans; conditions: for effect on FLC tolerance in FLC disk diffusion, all four strains: SC5314, SN152, cmp1-aid∆/cmp1-aid∆; for synergistic lethal effects with FLC compared to GdA and CsA (disk diffusion): Figure S3
Experimental: Yeast cells were cultured overnight at a temperature of 30 °C, and the resulting cell suspension was diluted to a concentration of 1 × 10^7 cells/mL in phosphate-buffered saline (PBS). At a concentration of 5 μM, the drugs were individually added to YPD plates for disk assays using a 25 μg FLC disk (6 mm, Liofilchem, Roseto degli Abruzzi, Italy). The plates were then incubated at 30 °C for 48 h. Subsequently, the disk was transferred to a drug-free YPD plate, which was incubated at 30 °C for 24 h and photographed.

C. albicans [3] = test: Broth microdilution assay of synergistic lethality with 4 μg/mL FLC (recovery on drug-free YPD); format: cell-based, Candida albicans; conditions: for synergistic lethal concentration (converts FLC from fungistatic to fungicidal): with 4 μg/mL FLC, tested 100 μM to 0.1953 μM, 30 °C, 48 h
C. albicans [4] = test: Dose–matrix titration assays (synergy, with YPD recovery plates); format: cell-based, Candida albicans; conditions: for effect of azole combined with PIT: Figure 5B
Experimental: The synergistic effects of drugs were conducted following the same procedure as the MIC assays. Specifically, 50 μL of drug A was distributed through two-fold serial dilution across seven plate columns. Subsequently, 50 μL of drug B was distributed in a two-fold serial dilution manner along seven rows of the plate. Furthermore, 100 μL of C. albicans cultures, adjusted to a density of 1 × 10^3 cells/mL, was dispensed into wells containing drugs and one control well devoid of any drugs. Before the 48 h OD600 readings, the plates were subjected to meticulous agitation to ensure the deposition of a representative 2 μL aliquot from each well onto newly prepared YPD recovery plates, thereby facilitating the evaluation of cellular recuperation following drug treatments. The recovery plates were subsequently incubated at a temperature of 30 °C for a duration ranging from 24 to 48 h, after which they were photographed. The experimental procedures were conducted in triplicate to ensure reliability and reproducibility.

mice = test: Acute toxicity, Up-and-Down procedure (OECD 425), intraperitoneal; format: in vivo
Experimental: as §1

[5] = concentration of the compound that is synergistically lethal with 4 μg/mL FLC, C. albicans, recovery on drug-free YPD

COC1=C2C[C@@H](C)C[C@H](OC)[C@H](O)[C@@H](C)/C=C(\C)[C@H](OC(N)=O)[C@@H](OC)/C=C\C=C(/C)C(=O)NC(=CC1=O)C2=O [GdA, geldanamycin]
LD50 at 48 h [1]: 19 mg/kg
effect on FLC tolerance in FLC disk diffusion, all four strains ([2]; PADH1-UPC2): effectively eradicated the zones of FLC inhibition

CO[C@H]1C[C@H](O[C@@H]2/C(C)=C/C[C@@H]3C[C@@H](C[C@]4(CC[C@H](C)[C@@H](C5CCCCC5)O4)O3)OC(=O)[C@@H]3C=C(C)/C(=N/O)[C@H]4OC/C(=C\C=C\[C@@H]2C)[C@]43O)O[C@@H](C)[C@@H]1O [Selamectin]
Synergistic lethal concentrations (C. albicans [3]): 12.5 µM

O=C1NCCN1CCN1CCC(c2cn(-c3ccc(F)cc3)c3ccc(Cl)cc23)CC1 [Sertindole]
Synergistic lethal concentrations (C. albicans [3]; [5]): 25 µM

CN[C@H]1CC[C@@H](c2ccc(Cl)c(Cl)c2)c2ccccc21.Cl [Sertraline (hydrochloride)]
Synergistic lethal concentrations (C. albicans [3]; [5]): 25 µM

O=C(O)CCC(=O)O.O=C(O[C@H]1CN2CCC1CC2)N1CCc2ccccc2[C@@H]1c1ccccc1 [Solifenacin (Succinate)]
Synergistic lethal concentrations (C. albicans [3]; [5]): 100 µM

CCOc1ccc(Cc2cc([C@@H]3O[C@H](SC)[C@@H](O)[C@H](O)[C@H]3O)ccc2Cl)cc1 [Sotagliflozin]
Synergistic lethal concentrations (C. albicans [3]; [5]): 100 µM

CC(C)(C)C(O)/C=C/c1ccc2c(c1)OCO2 (stereo not shown) [Stiripentol]
Synergistic lethal concentrations (C. albicans [3]; [5]): 100 µM

COc1cc(C)c2c(Oc3cccc(C(F)(F)F)c3)c(OC)cc(NC(C)CCCN)c2n1.O=C(O)CCC(=O)O (stereo not shown) [Tafenoquine (Succinate)]
Synergistic lethal concentrations (C. albicans [3]; [5]): 25 µM

Cn1ncnc1[C@H]1c2n[nH]c(=O)c3cc(F)cc(c23)N[C@@H]1c1ccc(F)cc1 [Talazoparib tosylate]
Synergistic lethal concentrations (C. albicans [3]; [5]): 100 µM

CCCCCNC(=N)N/N=C/c1c[nH]c2ccc(OC)cc12.O=C(O)/C=C\C(=O)O [Tegaserod (maleate)]
Synergistic lethal concentrations (C. albicans [3]; [5]): 6.25 µM

CN(C/C=C/C#CC(C)(C)C)Cc1cccc2ccccc12 [Terbinafine]
Synergistic lethal concentrations (C. albicans [3]; [5]): 6.25 µM

CC(C)(CO)c1cc2cc(NC(=O)C3(c4ccc5c(c4)OC(F)(F)O5)CC3)c(F)cc2n1C[C@@H](O)CO [Tezacaftor]
Synergistic lethal concentrations (C. albicans [3]; [5]): 100 µM

CSc1ccc2c(c1)N(CCC1CCCCN1C)c1ccccc1S2.Cl (stereo not shown) [Thioridazine (hydrochloride)]
Synergistic lethal concentrations (C. albicans [3]; [5]): 100 µM

CCCCCCCCCCCCCCCC[N+](C)(C)CCN(Cc1ccc(OC)cc1)c1ncccn1.[Br-] [Thonzonium (bromide)]
Synergistic lethal concentrations (C. albicans [3]; [5]): 100 µM

O=C(O)Cc1cc(I)c(Oc2ccc(O)c(I)c2)c(I)c1 [Tiratricol]
Synergistic lethal concentrations (C. albicans [3]; [5]): 100 µM

Cc1ccc(O)c([C@H](CCN(C(C)C)C(C)C)c2ccccc2)c1 [Tolterodine]
Synergistic lethal concentrations (C. albicans [3]; [5]): 100 µM

CC(C)OC(=O)CCC/C=C\C[C@@H]1[C@@H](/C=C/[C@@H](O)COc2cccc(C(F)(F)F)c2)[C@H](O)C[C@@H]1O [Travoprost]
Synergistic lethal concentrations (C. albicans [3]; [5]): 100 µM

Cl.OC(CCN1CCCCC1)(c1ccccc1)C1CCCCC1 (stereo not shown) [Trihexyphenidyl (hydrochloride)]
Synergistic lethal concentrations (C. albicans [3]; [5]): 100 µM

Cc1onc(-c2ccccc2)c1-c1ccc(S(N)(=O)=O)cc1 [Valdecoxib]
Synergistic lethal concentrations (C. albicans [3]; [5]): 100 µM

O=C(O)C(c1ccccc1)(c1ccccc1)c1ccccc1.OCc1cc([C@@H](O)CNCCCCCCOCCOCc2c(Cl)cccc2Cl)ccc1O [Vilanterol (trifenatate]
Synergistic lethal concentrations (C. albicans [3]; [5]): 100 µM

CC1=C(C)C(=O)C(CCCCCCCCCC[P+](c2ccccc2)(c2ccccc2)c2ccccc2)=CC1=O.[Br-] [Visomitin]
Synergistic lethal concentrations (C. albicans [3]; [5]): 50 µM

C=C/C=C/C[C@@H](C)[C@@H](O)[C@H]1C(=O)N[C@@H](CC)C(=O)N(C)CC(=O)N(C)[C@@H](CC(C)C)C(=O)N[C@@H](C(C)C)C(=O)N(C)[C@@H](CC(C)C)C(=O)N[C@@H](C)C(=O)N[C@H](C)C(=O)N(C)[C@@H](CC(C)C)C(=O)N(C)[C@@H](CC(C)C)C(=O)N(C)[C@@H](C(C)C)C(=O)N1C [Voclosporin]
Synergistic lethal concentrations (C. albicans [3]; [5]): 0.1953 µM

Br.Cc1ccc(Sc2ccccc2N2CCNCC2)c(C)c1 [Vortioxetine (hydrobromide)]
Synergistic lethal concentrations (C. albicans [3]; [5]): 100 µM

CC(C)n1nccc1-c1ncccc1COc1cccc(O)c1C=O [Voxelotor]
Synergistic lethal concentrations (C. albicans [3]; [5]): 100 µM

COCc1c(C(C)C)nc(C(C)C)c(/C=C/[C@@H](O)C[C@@H](O)CC(=O)O)c1-c1ccc(F)cc1 [cerivastatin sodium]
synergistic lethal concentration (converts FLC from fungistatic to fungicidal) (C. albicans [3]): ≤ 6.25 µM
effect on FLC tolerance in FLC disk diffusion, all four strains ([2]; PADH1-UPC2): made FLC fungicidal
concentration that renders FLC fungicidal (no recovery on YPD solid medium) (C. albicans [4]; FLC ≤4 μg/mL, YPD, 30 °C, 48 h): ≤ 3.125 µM

N=C(NCCCCCCNC(=N)NC(=N)Nc1ccc(Cl)cc1)NC(=N)Nc1ccc(Cl)cc1.O=C(O)[C@H](O)[C@@H](O)[C@H](O)[C@H](O)CO.O=C(O)[C@H](O)[C@@H](O)[C@H](O)[C@H](O)CO [chlorhexidine digluconate]
effect on FLC tolerance in FLC disk diffusion, PADH1-UPC2 strain ([2]; PADH1-UPC2): unsuccessful in reducing FLC tolerance
concentration that renders FLC fungicidal (no recovery on YPD solid medium) (C. albicans [4]; FLC ≤4 μg/mL, YPD, 30 °C, 48 h): ≤ 3.125 µM

C[C@@H]1CC[C@@]2(OC1)O[C@H]1C[C@H]3[C@@H]4CC=C5C[C@@H](O[C@@H]6O[C@H](CO)[C@@H](O[C@@H]7O[C@@H](C)[C@H](O)[C@@H](O)[C@H]7O)[C@H](O)[C@H]6O[C@@H]6O[C@@H](C)[C@H](O)[C@@H](O)[C@H]6O)CC[C@]5(C)[C@H]4CC[C@]3(C)[C@H]1[C@@H]2C [dioscin]
LD50 at 48 h [1]: 32 mg/kg
Synergistic lethal concentrations (C. albicans [3]; [5]): 6.25 µM
synergistic lethal effects with FLC compared to GdA and CsA (disk diffusion) [2]: weaker synergistic lethal effects
concentration that renders FLC fungicidal (no recovery on YPD solid medium) (C. albicans [4]; FLC ≤4 μg/mL, YPD, 30 °C, 48 h): ≤ 3.125 µM

CCCCCCCCCCCC[N+](C)(C)CCOc1ccccc1 [domiphen bromide]
synergistic lethal effects with FLC compared to GdA and CsA (disk diffusion) [2]: weaker synergistic lethal effects
concentration that renders FLC fungicidal (no recovery on YPD solid medium) (C. albicans [4]; FLC ≤4 μg/mL, YPD, 30 °C, 48 h): ≤ 3.125 µM

CC(C)n1c(/C=C/C(O)CC(O)CC(=O)O)c(-c2ccc(F)cc2)c2ccccc21 (stereo not shown) [fluvastatin sodium, reference compound]
synergistic lethal concentration (converts FLC from fungistatic to fungicidal) (C. albicans [3]): ≤ 6.25 µM

CCC(C)n1ncn(-c2ccc(N3CCN(c4ccc(OCC5COC(Cn6cncn6)(c6ccc(Cl)cc6Cl)O5)cc4)CC3)cc2)c1=O (stereo not shown) [itraconazole]
effect of azole combined with PIT (C. albicans [4]): synergistic lethal effects

CC(=O)N1CCN(c2ccc(OCC3COC(Cn4ccnc4)(c4ccc(Cl)cc4Cl)O3)cc2)CC1 (stereo not shown) [ketoconazole]
effect of azole combined with PIT (C. albicans [4]): synergistic lethal effects

Clc1ccc(COC(Cn2ccnc2)c2ccc(Cl)cc2Cl)c(Cl)c1 (stereo not shown) [miconazole]
effect of azole combined with PIT (C. albicans [4]): synergistic lethal effects

CCCCCCCCN=c1ccn(CCCCCCCCCCn2ccc(=NCCCCCCCC)cc2)cc1 [octenidine dihydrochloride]
synergistic lethal effects with FLC compared to GdA and CsA (disk diffusion) [2]: weaker synergistic lethal effects
concentration that renders FLC fungicidal (no recovery on YPD solid medium) (C. albicans [4]; FLC ≤4 μg/mL, YPD, 30 °C, 48 h): ≤ 3.125 µM

CC[C@@H]1/C=C(\C)C[C@H](C)C[C@H](OC)[C@H]2O[C@@](O)(C(=O)C(=O)N3CCCC[C@H]3C(=O)O[C@H](/C(C)=C/[C@@H]3CC[C@H](Cl)[C@H](OC)C3)[C@H](C)[C@@H](O)CC1=O)[C@H](C)C[C@@H]2OC [pimecrolimus]
LD50 at 48 h [1]: 42 mg/kg
Synergistic lethal concentrations (C. albicans [3]; [5]): 0.1953 µM
effect on FLC tolerance in FLC disk diffusion, all four strains ([2]; PADH1-UPC2): made FLC fungicidal
concentration that renders FLC fungicidal (no recovery on YPD solid medium) (C. albicans [4]; FLC ≤4 μg/mL, YPD, 30 °C, 48 h): ≤ 3.125 µM

Oc1cc(Cl)ccc1Oc1ccc(Cl)cc1Cl [triclosan]
LD50 at 48 h [1]: 62.6 mg/kg
Synergistic lethal concentrations (C. albicans [3]; [5]): 0.3906 µM
effect on FLC tolerance in FLC disk diffusion, all four strains ([2]; PADH1-UPC2): made FLC fungicidal
concentration that renders FLC fungicidal (no recovery on YPD solid medium) (C. albicans [4]; FLC ≤4 μg/mL, YPD, 30 °C, 48 h): ≤ 3.125 µM

C[C@@H](c1ncncc1F)[C@](O)(Cn1cncn1)c1ccc(F)cc1F [voriconazole]
effect of azole combined with PIT (C. albicans [4]): synergistic lethal effects

Cc1ccc(Sc2ccccc2N2CCNCC2)c(C)c1 [vortioxetine]
LD50 at 48 h [1]: 48.3 mg/kg
Synergistic lethal concentrations (C. albicans [3]; [5]): 6.25 µM
effect on FLC tolerance in FLC disk diffusion, all four strains ([2]; PADH1-UPC2): made FLC fungicidal
concentration that renders FLC fungicidal (no recovery on YPD solid medium) (C. albicans [4]; FLC ≤4 μg/mL, YPD, 30 °C, 48 h): ≤ 3.125 µM

bleomycin sulfate
LD50 (mice): 21.57 mg/kg
effect on FLC tolerance in FLC disk diffusion, cmp1-aid∆/cmp1-aid∆ strain ([2]; cmp1-aid∆/cmp1-aid∆): failed to clear the zone of FLC inhibition
concentration that renders FLC fungicidal (no recovery on YPD solid medium) (C. albicans [4]): ≤ 3.125 µM

ivermectin
Synergistic lethal concentrations (C. albicans [3]; [5]): 3.125 µM
synergistic lethal effects with FLC compared to GdA and CsA (disk diffusion) [2]: weaker synergistic lethal effects
concentration that renders FLC fungicidal (no recovery on YPD solid medium) (C. albicans [4]; FLC ≤4 μg/mL, YPD, 30 °C, 48 h): ≤ 3.125 µM
